Experimental data published in US9616062B2, “Cyclin dependent kinase inhibitors and methods of use” (priority 2009, dated 2017).

Legend:
[1] = system: primary human renal proximal tubule epithelial cells; assay: Protection from etoposide-induced cell death, CellTiter-Glo on day 7; type: cell-based; conditions: 16 h pretreatment, 2.5 μM etoposide 8 h, 7 days recovery
Procedure: FIG. 5: CDK4/6 inhibition protects primary human renal proximal tubule epithelial cells from etoposide-induced cell death. PD0332991 inhibits chemotherapy-induced cytotoxicity in a cdk4/6 dependent manner. Primary human renal proximal tubule epithelial cells were incubated with 30 nM or 100 nM PD0332991 for 16 hours. Etoposide (Etop, 2.5 μM) was added for 8 hours. Following incubation, the media was replaced with fresh media and the cells were incubated for an additional 7 days. On day 7, cell proliferation was assessed using CellTiter-Glo® (Promega, Madison, Wis., United States of America). Error bars show +/−standard deviation.
Primary normal human renal proximal epithelial cells (American Type Culture Collection (ATCC), Manassas, Va., United States of America) were cultured in renal epithelial cell basal media supplemented with renal epithelial cell growth kit according to the manufacturer's recommendations. […] For the γH2AX assay, cells were fixed, permeabilized, and stained with anti-γH2AX as per γH2AX Flow Kit (Millipore, Billerica, Mass., United States of America). γH2AX levels were assessed by flow cytometry. Cell proliferation was assessed by seeding 1×10^3 cells per well in a 96-well tissue culture plate in 100 μL of growth medium. […] 100 μL of TOXILIGHT™ reagent is added and incubated for 5 minutes and read in a luminometer at 1 second/well. […]

[2] = system: renal cell proliferation in female FVB wt mice; assay: EdU incorporation into whole kidney of cisplatin-treated mice (flow cytometry); type: in vivo, mouse
Procedure: FIG. 6: CDK4/6 inhibition blocks EdU incorporation into whole kidney in mice treated with cisplatin. […] EdU ([…]) was given IP every 24 hours prior to sacrifice. Kidneys were collected and single cell isolates were prepared and stained for EdU incorporation. Proliferation was assessed by flow cytometry. Data represents % of EdU staining in untreated, cisplatin-treated and cisplatin/PD0332991 treated cells.
[…] Proliferation was assessed by using BrdU (1 mg IP injection) every 6 hours for 24 hours prior to sacrifice or […] (0.1 mg IP) every 24 hours for 3 days prior to sacrifice.
Kidneys were harvested from mice and single cells were isolated using a gentleMACS™ tissue dissociator (Miltinyi Biotec, Bergisch Gladbach, Germany). Briefly, kidneys were cut into small pieces and placed in 10 ml collagenase (1 mg/ml) in a gentleMACS™ C tube (Miltinyi Biotec, Bergisch Gladbach, Germany). Tissue was dissociated following the manufacturer's recommendations (Miltinyi Biotec, Bergisch Gladbach, Germany). Cells were then incubated for 5 minutes in ACK buffer to lyse red blood cells, filtered and pelleted. Cells were resuspended in 4% paraformaldehyde and stored overnight at 4° C. For quantification of EdU incorporation, the cells were fixed, permeabilized, and stained with an APC EdU Flow Kit according to the manufacturer's instruction (Invitrogen Corporation, Carlsbad, Calif., United States of America). Flow cytometric analysis was performed using a CyAn ADP (Dako, Glostrup, Denmark). For each sample, a minimum of 500,000 cells was analyzed and the data were analyzed using FlowJo software (Tree Star, Inc., Ashland, Oreg., United States of America).
The kidney is relatively quiescent until challenged by a renal insult. Therefore, to determine whether renal cell proliferation was dependent on CDK4/6 activity in vivo, renal cell proliferation was stimulated by treating female FVB wt mice with cisplatin, a known nephrotoxic chemotherapeutic agent. At time 0 hr, mice were started on chow delivering PD0332991 100 mg/kg per day or standard chow with no drug. […]

[3] = system: murine splenic B and T cells; assay: Splenic lymphocyte proliferation in mice (Ki67 or BrdU staining); type: in vivo, mouse; conditions: 24 hours treatment, unstimulated mice
Procedure: Animals were treated with CDK4/6 inhibitor (PD0332991, open bars) or vehicle (shaded bars) for 24 hours and euthanized. Splenocytes were isolated and stained for B and T cell markers. After gating on appropriate populations, Ki67 staining was performed as an indicator of proliferation and S-phase. Error bars show +/−SEM.
FIG. 22: CDK4/6 inhibitors block B-cell proliferation. Animals were treated with CDK4/6 inhibitor (150 mg/kg by daily oral gavage) or vehicle for 4 days, and BrdU in the drinking water for 3 days. After BrdU treatment, animals were euthanized. Splenocytes were isolated and stained for B cell markers. After gating on appropriate populations, BrdU staining was performed as an indicator of proliferation.
Cohorts of wild type mice were treated with vehicle or a CDK4/6 inhibitor as in FIG. 11. […] Unstimulated mice were treated for 24 hours with PD0332991 and homeostatic B cell proliferation measured by Ki67 staining after appropriate sorting. Similar results were obtained using BrdU incorporation to measure splenic B cell proliferation. Similar experiments were undertaken in human cells with B cell receptor stimulation as described in FIG. 12.

Compound: CC(=O)c1c(C)c2cnc(Nc3ccc(N4CCNCC4)cn3)nc2n(C2CCCC2)c1=O [PD0332991, 6-acetyl-8-cyclopentyl-5-methyl-2-(5-piperazin-1-yl-pyridin-2-ylamino)-8H-pyrido-[2,3-d]-pyrimidin-7-one]
- protection from etoposide-induced cell death [1]: protection from etoposide induced cell death
- reduction in cell proliferation ([2]; cisplatin and PD0332991 vs cisplatin and vehicle control): 88%
- cells labeled with EdU ([2]; kidney single cell suspension, 72 h, cisplatin 15 mg/kg IP, PD0332991 100 mg/kg per day in chow or no drug): approximately 2%
- splenocyte B and T cell proliferation (Ki67 staining) [3]: blocks T and B cell proliferation
